Assay type in all cases: cell-based
For one assay, the system named is IL-2. The experiment in a line: IL-2 in PBMCs on anti-human CD3 (OKT3) coated plates, Mesoscale analysis. Conditions: PBMC, 24 h, relative to DMSO control, read-out: Fold Change IL-2. How it is done: For the IL-2 analysis, 96 well plates were precoated with 1 μg/mL anti-human CD3 antibody (OKT3, eBioscience Inc., San Diego, Calif.). After washing with PBS, compounds were added (50 μL/well) followed by PBMCs diluted at 3-4 million cells/mL (150 μL/well). Plates were incubated for 24 h and the supernatants collected for Mesoscale IL-2 analysis.
(§1) Compound activity is measured as fold difference from the DMSO control. Compounds 1, 2, and 3 each reduced expression of IL-1-b in LPS-stimulated PBMCs by over 80% at 1 uM, relative to a just under 80% reduction with pomalidomide at 10 μM (FIG. 2).

The test system of another assay is Molm-13 cells. The experiment in a line: Cell viability assay (CellTiter-Glo), Molm-13 cells. The conditions noted are these: Homo sapiens; for viability at 10 µM: MOLM-13, 10 μM. As for the experimental part:
FIG. 5 represents antiproliferative activity in Molm-13 cells. The cells were incubated with Compound 1, 2, or 3 (at the indicated concentration), DMSO, or pomalidomide. Compound activity was measured based on the signal from remaining viable cells.
(§2) Molm-13 cells were cultivated in RPMI-1640 (10% FBS/1% pen-strep) and were plated in white walled 96-well plates at 20,000 cells/well. H1048 cells were cultured in DMEM:F12 media supplemented with 5% fetal bovine serum, insulin, transferrin, sodium selenite, hydrocortisone, estradiol, penicillin and streptomycin, and were plated in white walled 96-well plates at 20,000 cells/well.
(§3) Cells were treated with compound at the indicated concentration or DMSO (control) and the cultures were incubated for 3 days at 37° C. and 5% CO2. Following the incubation period, 100 μL of CellTiterGlow (CTG) reagent (CellTiter-Glo® Luminescent Cell Viability Assay, Promega (Madison, Wis.)) was added to each well. Following a 10 min incubation with shaking, luminescence was measured using a Victor Wallac Luminometer.

The next assay deals with IL-1β. Description: IL-1 beta in LPS-induced PBMCs / CD14+ monocytes, Meso Scale assay. As for the experimental part: FIG. 2 represents the activity against IL-1-beta in CD14 monocytes, plated in 96 well plates and pretreated with Compounds 1, 2, or 3, or pomalidomide, for 1 h and then induced with 100 ng/mL LPS for 18-24 h. Cytokines were measured according to MesoScale protocol. Negative control wells were treated with DMSO. Compound activity was measured as a percentage of LPS-induced activity.
(§4) Either frozen primary blood mononuclear cells (PBMCs) or frozen CD14+ mobilized peripheral blood monocytes were purchased from AllCells (PB003F, Normal Peripheral Blood MNC (Alameda, Calif.)). Cells were quick thawed, washed 1-time with RPMI-1640 (10% FBS/1% Pen-Strep) and plated in 96 well plates at 200,000 cells per well. Cells were pretreated with DMSO only, pomalidomide or the indicated compounds for 1 h and then induced with 100 ng/mL lipopolysaccharide (LPS) for 18-24 h. The supernatant was analyzed for IL-1 beta, IL-6, and TNF-alpha, using Meso Scale assay according to manufacturer's protocol. The negative control wells were treated with DMSO.
as §1

The subject of the next assay is IL-6. Description: IL-6 in LPS-induced PBMCs / CD14+ monocytes, Meso Scale assay. How it is done: FIG. 3 represents the activity against IL-6 in CD14, monocytes, plated in 96 well plates and pretreated with Compounds 1, 2, or 3, or pomalidomide, for 1 h and then induced with 100 ng/mL LPS for 18-24 h. Cytokines were measured according to MesoScale protocol. Negative control wells were treated with DMSO. Cells were treated with compound (at the indicated concentrations) or 10 μM pomalidomide. Compound activity was measured as a percentage of LPS-induced activity.
as §4, §1

The test system of another assay is TNF-α. The experiment in a line: TNF-alpha in LPS-induced PBMCs / CD14+ monocytes, Meso Scale assay. How it is done: FIG. 4 represents the activity against TNF-alpha in CD14, monocytes, plated in 96 well plates and pretreated with Compounds 1, 2, or 3, or pomalidomide, for 1 h and then induced with 100 ng/mL LPS for 18-24 h. Cytokines were measured according to MesoScale protocol. The negative control wells were treated with DMSO. Cells were treated with compound (at the indicated concentrations) or 10 μM pomalidomide. Compound activity was measured as a percentage of LPS-induced activity.
as §4, §1

Another assay has as its target T1, GSPT1 (Homo sapiens, UniProt P15170).
T1 construct: Whole cell extract was prepared with RIPA buffer according to manufacturer's protocol; endogenous in cells; host or cells: Jurkat cells
The experiment in a line: Western blot analysis of GSPT1 protein levels in Jurkat cells. Conditions: DMSO = 100.00; for GSPT1 protein level (% of DMSO control) at 0.1 µM: 100 nM compound; for GSPT1 protein level (% of DMSO control) at 1 µM: 1 uM compound. As for the experimental part: FIG. 1 represents the activity against CK1α, ikaros, and GPST1 in Jurkat cells, plated in 96 well plates. Cells were pretreated with compounds for 4 h and then lysed and protein levels measure via Western blots. The negative control wells were treated with DMSO. Cells were treated with the indicated compound at the indicated concentration. Compound activity is measured as a decrease in GSPT1 protein levels.
Western Blot Protocol: Cell lines were grown in RPMI 1640 supplemented with streptomycin, penicillin and 10% fetal bovine serum.
Jurkat cells were cultured at approximately 10^6 cells per mL, DMSO or the indicated compound was added to the cells and allowed to incubate for 6-8 h. Whole cell extract was prepared with RIPA buffer according to manufacturer's protocol (Pierce (Dallas, Tex.)). Briefly, ˜2×10^6 cells were washed once in PBS, the cell pellet was resuspended in RIPA buffer and allowed to incubate for 15 min on ice. Cell debris was removed by centrifugation and the cleared whole cell lysate was transferred to a new tube for further analysis.
For western blot analysis, whole cell extracts were separated on 4-12% SDS-polyacrylamide gels, transferred to nitrocellulose and probed with the indicated primary antibodies. Membranes were subsequently washed and probed with the appropriate horseradish peroxidase (HRP)-conjugated secondary antibody. Membranes were subsequently washed and probed with the appropriate IRDye secondary antibodies (LI-COR). The signal was detected using the Odyssey Imaging System (LI-COR).
In general terms: Immunoblotting shows a protein as a band on a membrane.

The test system of a further assay is H1048 cells. The experiment in a line: Cell viability assay (CellTiter-Glo), H1048 cells. The conditions noted are these: Homo sapiens, NCI-H1048, 72 h, 3 days; for viability at 1 µM: H1048, 1 μM; for viability at 10 µM: H1048, 10 μM. How it is done: as §2, §3

T1 sequence (P15170 whole entry): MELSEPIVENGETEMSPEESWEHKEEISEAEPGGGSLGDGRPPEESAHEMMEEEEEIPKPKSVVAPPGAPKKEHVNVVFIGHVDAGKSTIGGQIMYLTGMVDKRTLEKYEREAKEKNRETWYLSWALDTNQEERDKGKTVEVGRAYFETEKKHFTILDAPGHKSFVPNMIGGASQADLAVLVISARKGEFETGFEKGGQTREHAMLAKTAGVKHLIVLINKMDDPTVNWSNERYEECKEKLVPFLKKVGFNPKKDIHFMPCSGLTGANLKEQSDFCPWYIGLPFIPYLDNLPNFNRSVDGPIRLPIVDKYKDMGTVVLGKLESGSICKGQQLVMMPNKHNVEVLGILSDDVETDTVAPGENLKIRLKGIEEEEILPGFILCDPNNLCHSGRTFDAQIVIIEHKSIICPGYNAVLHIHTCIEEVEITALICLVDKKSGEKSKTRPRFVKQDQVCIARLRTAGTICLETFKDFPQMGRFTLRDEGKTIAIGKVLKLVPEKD

For `Cc1ccc(NC(=O)NCc2cc3c(cc2F)C(=O)N([C@H]2CCCC(=O)NC2=O)C3)cc1Cl` [Compound 22, (S)-1-(3-chloro-4-methylphenyl)-3-((2-(2,7-dioxoazepan-3-yl)-6-fluoro-1-oxoisoindolin-5-yl)methyl)urea], the fold induction at 0.1 µM in the assay with IL-2 was 2. Further, the viability (usually the share of living cells, or the viability signal relative to a control) at 1 µM is 2.45% in the assay on Molm-13 cells (72 h, MOLM-13, 1 μM, 3 days) and 11.5% in the assay with H1048 cells. Moreover, the inhibition (commonly how much of the control response was suppressed) at 0.1 µM with IL-1β amounted to 82%; in the assay with IL-6, 58%; in the assay with TNF-α, 74%. The GSPT1 protein level (% of DMSO control) at 0.1 µM on GSPT1 is 22.1%. Moreover, on GSPT1, the GSPT1 protein level (% of DMSO control) at 1 µM was determined as 5.56%. In the assay on H1048 cells, this compound had a viability at 10 µM of 4.04%.
With `Cc1ccc(NC(=O)NCc2ccc3c(c2)CN([C@H]2CCCC(=O)NC2=O)C3=O)cc1Cl` [Compound 1], the fold induction at 0.1 µM with IL-2 came to 1.4. Further, in the assay with Molm-13 cells (72 h, MOLM-13, 0.3 μM, 3 days), the viability at 0.3 µM was determined as 50%. In the assay on Molm-13 cells (Molm-13 cells, approximate), the IC50 (usually the point on the concentration scale where inhibition reaches its midpoint) is approximately 450 nM. The compound further yielded an inhibition at 0.1 µM in the assay on IL-1β of 70%. In the assay with IL-6, the inhibition at 0.1 µM came to 55%. This compound had an inhibition at 0.1 µM in the assay on TNF-α of 75%. Besides, on GSPT1, the GSPT1 protein level (% of DMSO control) at 0.1 µM was found to be 28.6% and the GSPT1 protein level (% of DMSO control) at 1 µM came out at 3.63%. Moreover, in the assay with H1048 cells, the viability at 1 µM is 8.39% and the viability at 10 µM worked out at 3.51%.
`Cc1ccc(NC(=O)NCCc2cccc3c2CN([C@H]2CCCC(=O)NC2=O)C3=O)cc1Cl` [Compound 23, (S)-1-(3-chloro-4-methylphenyl)-3-(2-(2-(2,7-dioxoazepan-3-yl)-1-oxoisoindolin-4-yl)ethyl)urea]: in the assay with IL-2, the fold induction at 0.1 µM was found to be 0.8. Besides, the viability at 10 µM with Molm-13 cells (72 h, 3 days) came to 96%; with H1048 cells it was 25.1%. In addition, the inhibition at 0.1 µM was 21% in the assay on IL-1β, 0% with IL-6 and 25% in the assay on TNF-α. In addition, the GSPT1 protein level (% of DMSO control) at 0.1 µM at GSPT1 was found to be 147%. In addition, the GSPT1 protein level (% of DMSO control) at 1 µM on GSPT1 was 105%.
On to `COc1ccc(NC(=O)NCc2ccc3c(c2)CN([C@H]2CCCC(=O)NC2=O)C3=O)cc1Cl` [Compound 8, (S)-1-(3-chloro-4-methoxyphenyl)-3-((2-(2,7-dioxoazepan-3-yl)-1-oxoisoindolin-5-yl)methyl)urea], for which the fold induction at 1 µM with IL-2 came out at 0.9. In the assay on Molm-13 cells (72 h, MOLM-13, 0.5 μM, 3 days), this compound displayed a viability at 0.5 µM of 48%. Moreover, the inhibition at 1 µM with IL-1β was 78%; with IL-6 it was 95%; in the assay on TNF-α, 84%. For the same compound, on GSPT1, the GSPT1 protein level (% of DMSO control) at 0.1 µM worked out at 52.6%. Besides, on GSPT1, the GSPT1 protein level (% of DMSO control) at 1 µM amounted to 14.9%. This compound came in with a viability at 1 µM with H1048 cells of 17.4%. In the assay with H1048 cells, this compound registered a viability at 10 µM of 4.4%.
Regarding `O=C(Cc1ccc(C(F)(F)F)c(Cl)c1)NCc1ccc2c(c1)CN([C@H]1CCCC(=O)NC1=O)C2=O` [Compound 10, (S)-2-(3-chloro-4-(trifluoromethyl)phenyl)-N-((2-(2,7-dioxoazepan-3-yl)-1-oxoisoindolin-5-yl)methyl)acetamide], in the assay on IL-2, the fold induction at 1 µM came to 1.5. Also, the viability at 10 µM in the assay with Molm-13 cells (72 h, 3 days) was 96%; in the assay with H1048 cells it was 21.5%. The inhibition at 1 µM turned out to be 68% with IL-1β, 67% in the assay with IL-6 and 67% in the assay on TNF-α. For the same compound, the GSPT1 protein level (% of DMSO control) at 0.1 µM on GSPT1 came out at 83.3%. The compound also registered a GSPT1 protein level (% of DMSO control) at 1 µM on GSPT1 of 49.3%. In the assay on H1048 cells, the viability at 1 µM was 82.1%.
Turning to `Cc1ccc(CC(=O)NCc2ccc3c(c2)CN([C@H]2CCCC(=O)NC2=O)C3=O)cc1CN1CCOCC1` [Compound 11, (S)—N-((2-(2,7-dioxoazepan-3-yl)-1-oxoisoindolin-5-yl)methyl)-2-(4-methyl-3-(morpholinomethyl)phenyl)acetamide], the fold induction at 1 µM in the assay with IL-2 was 0.6. Besides, the viability at 10 µM in the assay on Molm-13 cells (72 h, 3 days) came out at 99%; with H1048 cells, 11.6%. The values for the inhibition at 1 µM with IL-1β, with IL-6 and with TNF-α were 0%, 5% and 12%, respectively. The same compound gave a GSPT1 protein level (% of DMSO control) at 0.1 µM on GSPT1 of 137%. The compound also gave a GSPT1 protein level (% of DMSO control) at 1 µM at GSPT1 of 56%. The same compound registered a viability at 1 µM in the assay on H1048 cells of 70.8%.
